Target: T1, BRM (Homo sapiens, UniProt P51531)
T1 construct: In-Cell Western Screen of BRM Degradation in SW1573 Cells; endogenous in cells; host or cells: SW1573
Test: In-cell Western screen of BRM degradation in SW1573 cells (Dmax and DC50)
Assay type: cell-based
Settings: for Dmax: SW1573, % degraded, when tested at the top concentration of between 0.3 and 10 μM, read-out: BRM Dmax (%); for DC50: degradation of BRM, read-out: BRM DC50
Outline: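 BRM levels were read by LI-COR in-cell Western after two-channel (800/680 nm) immunostaining of fixed, Triton-permeabilised SW1573 cells.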

T1 sequence (P51531 whole entry): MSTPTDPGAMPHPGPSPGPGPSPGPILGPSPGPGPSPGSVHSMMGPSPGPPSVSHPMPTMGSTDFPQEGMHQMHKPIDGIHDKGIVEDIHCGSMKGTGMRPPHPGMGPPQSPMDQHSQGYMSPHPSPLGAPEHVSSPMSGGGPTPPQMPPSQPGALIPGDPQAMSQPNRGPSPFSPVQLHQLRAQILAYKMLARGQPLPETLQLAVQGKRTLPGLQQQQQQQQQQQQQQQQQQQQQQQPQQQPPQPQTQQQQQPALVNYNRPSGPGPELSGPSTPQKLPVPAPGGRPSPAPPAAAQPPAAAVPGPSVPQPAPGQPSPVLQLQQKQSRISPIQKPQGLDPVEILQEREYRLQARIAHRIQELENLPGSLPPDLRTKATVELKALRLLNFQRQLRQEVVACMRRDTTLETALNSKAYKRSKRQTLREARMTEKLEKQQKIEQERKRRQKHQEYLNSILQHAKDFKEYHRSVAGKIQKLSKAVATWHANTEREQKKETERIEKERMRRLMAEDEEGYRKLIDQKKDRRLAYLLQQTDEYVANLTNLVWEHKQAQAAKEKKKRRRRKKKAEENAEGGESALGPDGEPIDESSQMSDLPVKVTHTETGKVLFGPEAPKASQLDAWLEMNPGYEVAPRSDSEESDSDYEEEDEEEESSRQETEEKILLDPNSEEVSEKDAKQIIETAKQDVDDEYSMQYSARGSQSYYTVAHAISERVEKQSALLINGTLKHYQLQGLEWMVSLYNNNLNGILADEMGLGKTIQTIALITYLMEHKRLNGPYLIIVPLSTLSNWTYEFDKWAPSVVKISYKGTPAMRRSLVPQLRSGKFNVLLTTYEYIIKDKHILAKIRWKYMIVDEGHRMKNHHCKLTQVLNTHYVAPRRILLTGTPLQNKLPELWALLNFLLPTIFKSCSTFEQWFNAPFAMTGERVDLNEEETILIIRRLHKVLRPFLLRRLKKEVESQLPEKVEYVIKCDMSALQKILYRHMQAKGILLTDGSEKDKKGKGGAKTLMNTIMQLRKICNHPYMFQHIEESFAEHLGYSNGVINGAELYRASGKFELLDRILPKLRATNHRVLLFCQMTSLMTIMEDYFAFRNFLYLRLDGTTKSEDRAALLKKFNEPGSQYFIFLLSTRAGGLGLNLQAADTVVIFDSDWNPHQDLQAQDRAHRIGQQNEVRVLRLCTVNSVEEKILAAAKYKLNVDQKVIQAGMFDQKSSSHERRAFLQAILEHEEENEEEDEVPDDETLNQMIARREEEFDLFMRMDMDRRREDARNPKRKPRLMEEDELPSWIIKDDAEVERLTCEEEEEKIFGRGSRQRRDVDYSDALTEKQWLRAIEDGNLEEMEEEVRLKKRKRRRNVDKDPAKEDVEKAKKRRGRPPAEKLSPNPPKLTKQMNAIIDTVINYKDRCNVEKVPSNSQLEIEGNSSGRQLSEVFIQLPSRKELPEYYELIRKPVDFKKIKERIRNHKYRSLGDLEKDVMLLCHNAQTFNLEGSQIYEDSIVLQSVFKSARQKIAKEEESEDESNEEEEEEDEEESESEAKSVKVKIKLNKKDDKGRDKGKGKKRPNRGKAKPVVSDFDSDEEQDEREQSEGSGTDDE

SMILES	Dmax	DC50
Cc1ncsc1-c1ccc([C@H](C)NC(=O)[C@@H]2C[C@@H](O)CN2C(=O)[C@@H](c2cc(N3CCC(O[C@H]4C[C@H](Oc5cc(N6C7CCC6CN(c6cc(-c8ccccc8O)nnc6N)C7)ccn5)C4)CC3)no2)C(C)C)cc1 [compound 404, (2S,4R)-1-((2R)-2-(3-(4-((1r,3R)-3-((4-(3-(3-amino-6-(2-hydroxyphenyl)pyridazin-4-yl)-3,8-diazabicyclo[3.2.1]octan-8-yl)pyridin-2-yl)oxy)cyclobutoxy)piperidin-1-yl)isoxazol-5-yl)-3-methylbutanoyl)-4-hydroxy-N-((S)-1-(4-(4-methylthiazol-5-yl)phenyl)ethyl)pyrrolidine-2-carboxamide]	> 75%	< 2.5 nM
Cc1ncsc1-c1ccc([C@H](C)NC(=O)[C@@H]2C[C@@H](O)CN2C(=O)[C@@H](c2cc(OCCN3CCC(C(=O)N4CC(Oc5cc(N6C7CCC6CN(c6cc(-c8ccccc8O)nnc6N)C7)ccn5)C4)CC3)no2)C(C)C)cc1 [compound 405, (2S,4R)-1-((2R)-2-(3-(2-(4-(3-((4-(3-(3-amino-6-(2-hydroxyphenyl)pyridazin-4-yl)-3,8-diazabicyclo[3.2.1]octan-8-yl)pyridin-2-yl)oxy)azetidine-1-carbonyl)piperidin-1-yl)ethoxy)isoxazol-5-yl)-3-methylbutanoyl)-4-hydroxy-N-((S)-1-(4-(4-methylthiazol-5-yl)phenyl)ethyl)pyrrolidine-2-carboxamide]	> 75%	< 2.5 nM
Cc1ncsc1-c1ccc([C@H](C)NC(=O)[C@@H]2C[C@@H](O)CN2C(=O)[C@@H](c2cc(OCCN3CCC(CN4CC(Oc5cc(N6C7CCC6CN(c6cc(-c8ccccc8O)nnc6N)C7)ccn5)C4)CC3)no2)C(C)C)cc1 [compound 406, (2S,4R)-1-((2R)-2-(3-(2-(4-((3-((4-(3-(3-amino-6-(2-hydroxyphenyl)pyridazin-4-yl)-3,8-diazabicyclo[3.2.1]octan-8-yl)pyridin-2-yl)oxy)azetidin-1-yl)methyl)piperidin-1-yl)ethoxy)isoxazol-5-yl)-3-methylbutanoyl)-4-hydroxy-N-((S)-1-(4-(4-methylthiazol-5-yl)phenyl)ethyl)pyrrolidine-2-carboxamide]		> 30 nM
Cc1ncsc1-c1ccc([C@H](C)NC(=O)[C@@H]2C[C@@H](O)CN2C(=O)[C@H](c2cc(OCCN3CCN(CCO[C@H]4C[C@H](Oc5cc(N6C7CCC6CN(c6cc(-c8ccccc8O)nnc6N)C7)ccn5)C4)CC3)no2)C(C)C)cc1 [compound 407, (2S,4R)-1-((2S)-2-(3-(2-(4-(2-((1r,3r)-3-((4-(3-(3-amino-6-(2-hydroxyphenyl)pyridazin-4-yl)-3,8-diazabicyclo[3.2.1]octan-8-yl)pyridin-2-yl)oxy)cyclobutoxy)ethyl)piperazin-1-yl)ethoxy)isoxazol-5-yl)-3-methylbutanoyl)-4-hydroxy-N-((S)-1-(4-(4-methylthiazol-5-yl)phenyl)ethyl)pyrrolidine-2-carboxamide]		> 30 nM
Cc1ncsc1-c1ccc([C@H](C)NC(=O)[C@@H]2C[C@@H](O)CN2C(=O)[C@@H](c2cc(OCCN3CCN(CCO[C@H]4C[C@H](Oc5cc(N6C7CCC6CN(c6cc(-c8ccccc8O)nnc6N)C7)ccn5)C4)CC3)no2)C(C)C)cc1 [compound 408, (2S,4R)-1-((2R)-2-(3-(2-(4-(2-((1r,3r)-3-((4-(3-(3-amino-6-(2-hydroxyphenyl)pyridazin-4-yl)-3,8-diazabicyclo[3.2.1]octan-8-yl)pyridin-2-yl)oxy)cyclobutoxy)ethyl)piperazin-1-yl)ethoxy)isoxazol-5-yl)-3-methylbutanoyl)-4-hydroxy-N-((S)-1-(4-(4-methylthiazol-5-yl)phenyl)ethyl)pyrrolidine-2-carboxamide]	> 75%	< 2.5 nM
CC(C)[C@H](C(=O)N1C[C@H](O)C[C@H]1C(=O)N[C@@H](C)c1ccc(-c2c(F)cnn2C)cc1)c1cc(OCCN2CCN(CCOc3cc(N4C5CCC4CN(c4cc(-c6ccccc6O)nnc4N)C5)ccn3)CC2)no1 [compound 409, (2S,4R)-1-((2S)-2-(3-(2-(4-(2-((4-(3-(3-amino-6-(2-hydroxyphenyl)pyridazin-4-yl)-3,8-diazabicyclo[3.2.1]octan-8-yl)pyridin-2-yl)oxy)ethyl)piperazin-1-yl)ethoxy)isoxazol-5-yl)-3-methylbutanoyl)-N-((S)-1-(4-(4-fluoro-1-methyl-1H-pyrazol-5-yl)phenyl)ethyl)-4-hydroxypyrrolidine-2-carboxamide]		> 30 nM
CC(C)[C@@H](C(=O)N1C[C@H](O)C[C@H]1C(=O)N[C@@H](C)c1ccc(-c2c(F)cnn2C)cc1)c1cc(OCCN2CCN(CCOc3cc(N4C5CCC4CN(c4cc(-c6ccccc6O)nnc4N)C5)ccn3)CC2)no1 [compound 410, (2S,4R)-1-((2R)-2-(3-(2-(4-(2-((4-(3-(3-amino-6-(2-hydroxyphenyl)pyridazin-4-yl)-3,8-diazabicyclo[3.2.1]octan-8-yl)pyridin-2-yl)oxy)ethyl)piperazin-1-yl)ethoxy)isoxazol-5-yl)-3-methylbutanoyl)-N-((S)-1-(4-(4-fluoro-1-methyl-1H-pyrazol-5-yl)phenyl)ethyl)-4-hydroxypyrrolidine-2-carboxamide]	> 75%	< 2.5 nM
Cc1ncsc1-c1ccc([C@H](C)NC(=O)[C@@H]2C[C@@H](O)CN2C(=O)C(c2cc(O[C@H]3C[C@H](N4CCC(O[C@H]5C[C@H](Oc6cc(N7C8CCC7CN(c7cc(-c9ccccc9O)nnc7N)C8)ccn6)C5)CC4)C3)no2)C(C)C)cc1 (stereo partly drawn) [compound 411, (2S,4R)-1-(2-(3-((1R,3S)-3-(4-((1r,3R)-3-((4-(3-(3-amino-6-(2-hydroxyphenyl)pyridazin-4-yl)-3,8-diazabicyclo[3.2.1]octan-8-yl)pyridin-2-yl)oxy)cyclobutoxy)piperidin-1-yl)cyclobutoxy)isoxazol-5-yl)-3-methylbutanoyl)-4-hydroxy-N-((S)-1-(4-(4-methylthiazol-5-yl)phenyl)ethyl)pyrrolidine-2-carboxamide]	> 75%	< 2.5 nM
Cc1nccn1-c1ccc([C@H](C)NC(=O)[C@@H]2C[C@@H](O)CN2C(=O)[C@H](c2cc(N3CCN(CCN4CCC(O[C@H]5C[C@H](Oc6cc(N7C8CCC7CN(c7cc(-c9ccccc9O)nnc7N)C8)ccn6)C5)CC4)CC3)no2)C(C)C)cc1 [compound 412, (2S,4R)-1-((2S)-2-(3-(4-(2-(4-((1r,3r)-3-((4-(3-(3-amino-6-(2-hydroxyphenyl)pyridazin-4-yl)-3,8-diazabicyclo[3.2.1]octan-8-yl)pyridin-2-yl)oxy)cyclobutoxy)piperidin-1-yl)ethyl)piperazin-1-yl)isoxazol-5-yl)-3-methylbutanoyl)-4-hydroxy-N-((S)-1-(4-(2-methyl-1 H-imidazol-1-yl)phenyl)ethyl)pyrrolidine-2-carboxamide]		> 30 nM
Cc1nccn1-c1ccc([C@H](C)NC(=O)[C@@H]2C[C@@H](O)CN2C(=O)[C@@H](c2cc(N3CCN(CCN4CCC(O[C@H]5C[C@H](Oc6cc(N7C8CCC7CN(c7cc(-c9ccccc9O)nnc7N)C8)ccn6)C5)CC4)CC3)no2)C(C)C)cc1 [compound 413, (2S,4R)-1-((2R)-2-(3-(4-(2-(4-((1r,3r)-3-((4-(3-(3-amino-6-(2-hydroxyphenyl)pyridazin-4-yl)-3,8-diazabicyclo[3.2.1]octan-8-yl)pyridin-2-yl)oxy)cyclobutoxy)piperidin-1-yl)ethyl)piperazin-1-yl)isoxazol-5-yl)-3-methylbutanoyl)-4-hydroxy-N-((S)-1-(4-(2-methyl-1H-imidazol-1-yl)phenyl)ethyl)pyrrolidine-2-carboxamide]	> 75%	< 2.5 nM
Cc1ncsc1-c1ccc([C@H](C)NC(=O)[C@@H]2C[C@@H](O)CN2C(=O)[C@@H](c2cc(OCCN3CCC(O[C@H]4C[C@H](C#C[C@@H](C)n5cc(-c6cc(-c7ccccc7O)nnc6N)cn5)C4)CC3)no2)C(C)C)cc1 [compound 414, (2S,4R)-1-((R)-2-(3-(2-(4-((1R,3R)-3-((R)-3-(4-(3-amino-6-(2-hydroxyphenyl)pyridazin-4-yl)-1 H-pyrazol-1-yl)but-1-yn-1-yl)cyclobutoxy)piperidin-1-yl)ethoxy)isoxazol-5-yl)-3-methylbutanoyl)-4-hydroxy-N-((S)-1-(4-(4-methylthiazol-5-yl)phenyl)ethyl)pyrrolidine-2-carboxamide]	> 75%	< 2.5 nM
Cc1ncsc1-c1ccc([C@H](C)NC(=O)[C@@H]2C[C@@H](O)CN2C(=O)[C@@H](c2cc(OCCN3CCC(O[C@H]4C[C@H](C#C[C@H](C)n5cc(-c6cc(-c7ccccc7O)nnc6N)cn5)C4)CC3)no2)C(C)C)cc1 [compound 415, (2S,4R)-1-((R)-2-(3-(2-(4-((1S,3R)-3-((S)-3-(4-(3-amino-6-(2-hydroxyphenyl)pyridazin-4-yl)-1H-pyrazol-1-yl)but-1-yn-1-yl)cyclobutoxy)piperidin-1-yl)ethoxy)isoxazol-5-yl)-3-methylbutanoyl)-4-hydroxy-N-((S)-1-(4-(4-methylthiazol-5-yl)phenyl)ethyl)pyrrolidine-2-carboxamide]	> 75%	< 2.5 nM
CC(C)[C@@H](C(=O)N1C[C@H](O)C[C@H]1C(=O)N[C@@H](C)c1ccc(-c2scnc2N)cc1)c1cc(OCCN2CCC(O[C@H]3C[C@H](Oc4cc(N5C6CCC5CN(c5cc(-c7ccccc7O)nnc5N)C6)ccn4)C3)CC2)no1 [compound 416, (2S,4R)-1-((2R)-2-(3-(2-(4-((1r,3R)-3-((4-(3-(3-amino-6-(2-hydroxyphenyl)pyridazin-4-yl)-3,8-diazabicyclo[3.2.1]octan-8-yl)pyridin-2-yl)oxy)cyclobutoxy)piperidin-1-yl)ethoxy)isoxazol-5-yl)-3-methylbutanoyl)-N-((S)-1-(4-(4-aminothiazol-5-yl)phenyl)ethyl)-4-hydroxypyrrolidine-2-carboxamide]	> 75%	< 2.5 nM

Source: patent US12539292B2, “BRM targeting compounds and associated methods of use” (Arvinas Operations, Inc., priority 2018, dated 2026)
